Assay results taken from patent US4622421A, “Phenylalkanoic acid derivatives and their use” (Sankyo Company Limited, priority 1983, dated 1986).
Read-outs that look alike come from different tables or passages of the source.

Experiments:
[1] = system: carrageenin-induced inflammation (hind paw oedema); experiment: Carrageenin oedema test for anti-inflammatory activity; format: in vivo, Male Wistar rats; conditions: po, read-out: Anti-inflammatory activity, ID50
Description: Male Wistar rats weighing 120-150 g were fasted overnight and then received a test compound per os as an aqueous tragacanth suspension. 30 minutes later, inflammation was induced by the subcutaneous injection of 0.05 ml of a 1% w/v carrageenin suspension into the plantar tissue of a hind paw of each rat [Winter et al., Proc. Soc. […] The anti-oedema activity was measured volumetrically, by assessing the response, as calculated from the following equation: Response=(V-Vo)/Vo where Vo and V represent, respectively, the paw volume immediately before and 3 hours after the carrageenin injection.

[2] = system: IgM antibody-producing cells in the spleen; experiment: Test for immuno-regulatory activity (Cunningham's method, IgM antibody production to sheep erythrocytes); format: in vivo, female mice of the BALB/c strain; conditions: mouse, oral, dose from 1 to 10 mg per kg, spleen after 5 days
Description: The immuno-regulatory activity of (±)-2-[4-(cis-2-hydroxycyclohexylmethyl)phenyl]propionic acid was tested by Cunningham's method [A. J. Cunningham and A. Szenberg, Immunology 14, 599 (1968)]. The test compound was administered orally to female mice of the BALB/c strain and simultaneously sheep erythrocytes were administered intraperitonially, in order to sensitise the animal to these erythrocytes as an antigen. After 5 days, the spleen of the experimental animal was extracted and the number of IgM antibody-producingcells in the spleen cells was calculated.

[3] = system: pressure-induced pain threshold; experiment: Pain test for analgesic activity (modified Randall and Selitto, Brewers' yeast-inflamed paw); format: in vivo, Male Wistar-Imamichi rats; conditions: read-out: Analgesic activity, ED50
Description: This test was conducted according to a modification of the method reported by L. O. Randall and J. J. Selitto in Arch. Int.
Male Wistar-Imamichi rats of 4 weeks of age and weighing 60-90 g were injected with 0.1 ml of a 20% by weight suspension of Brewers' yeast in the right hind paw. […] Each of these was given orally a test compound as an aqueous tragacanth suspension. 1 and 2 hours after administration of the test compound, the pain threshold was determined by observing pain responses (such as struggling or squeaking) when the inflamed or normal paw was subjected to pressure by a machine (Ugo-Basile).

[4] = rat, per os, paw volume 3 hours after carrageenin, dose inhibiting the response by 50%
[5] = rat, oral, pain threshold 1 and 2 hours after administration, Litchfield and Wilcoxon

Question: Which ED50 [1, 4] does the source give for `CC(C(=O)O)c1ccc(C[C@@H]2CCCC[C@@H]2O)cc1` (mixture of isomers) [Compound 1, (±)-2-[4-(cis-2-hydroxycyclohexylmethyl)phenyl]propionic acid] here?
Answer: 3.3 mg/kg

Question: What about the “percent inhibition of antibody production” value [2] of the same compound?
Answer: ≥ 50%

Question: And the ED50 [3, 5]?
Answer: 0.86 mg/kg

Question: `CC(C(=O)O)c1ccc(C[C@@H]2CCCC[C@H]2O)cc1` (mixture of isomers) [Compound 2, (±)-2-[4-(trans-2-hydroxycyclohexylmethyl)phenyl]propionic acid] was tested. Which ED50 [1, 4] did it give?
Answer: 0.96 mg/kg

Question: And the ED50 [3, 5]?
Answer: 0.76 mg/kg

Question: What does the source list for `COc1ccc2c(c1)c(CC(=O)O)c(C)n2C(=O)c1ccc(Cl)cc1` [Compound 3, Indomethacin, reference compound]?
Answer: ED50 ([1]; Rattus norvegicus, 3 h): 2.2 mg/kg; ED50 ([3]; Rattus norvegicus, po): 1.6 mg/kg
